Data on 22 compounds can be found in US20130184257A1, “PIPERIDINYL-SUBSTITUTED LACTAMS AS GPR119 MODULATORS” (priority 2010, published 2013).

Each structure is given as a SMILES string.

This test has as its system modified version of the GPR119 receptor (94% identity to human receptor) stably expressed in HEK-293 cells. The test is described as follows: cAMP Production Assay (LANCE cAMP kit, TR-FRET). The class given is cell-based. As to conditions: for cAMP production in HEK-293 cells: HEK-293 cells expressing modified GPR119, test compounds 0.2 nM to 10 μM, one-hour incubation at ambient temperature; for Fold over baseline: increase in cAMP relative to basal levels, 1.5-fold or greater = agonist activity. The protocol:
The assay utilized HEK-293 cells that stably express a modified version of the GPR119 receptor (94% identity to human receptor), under the control of a CMV promoter containing a tet-on element for tetracycline-inducible expression. GPR119 agonist-induced cyclic AMP (cAMP) production was measured in this cell line using the LANCE cAMP kit (Perkin Elmer, Waltham, Mass.). To generate a working stock of cells for the assay, cells were treated overnight with 1 μg/mL doxycycline at 37° C. in the presence of 5% CO2 to induce receptor expression. Cells were then harvested by enzymatic dissociation with 0.05% trypsin, resuspended in freezing medium (DMEM growth medium with 10% each of fetal bovine serum and DMSO), aliquoted and frozen at −80° C. On the day of the assay, frozen cells were thawed, washed 1× in PBS and resuspended in Hank's buffered salt solution (HBSS) containing 5 mM HEPES, 0.1% BSA and Alexa Fluor 647-conjugated anti-cAMP antibody (diluted 1:100). The cell suspension was then transferred to a Proxiplate Plus white 384-well assay plate (Perkin-Elmer) at 2000 cells/well. Test compounds at final concentrations ranging from 0.2 nM to 10 μM were added to the assay plate, followed by a one-hour incubation at ambient temperature (volume=10 μL/well). DMSO concentration was held constant at 0.5%. After incubation with test compounds, 10 μL of a detergent buffer containing a biotinylated cAMP/Europium-conjugated streptavidin complex (Europium-labeled cAMP tracer) were added to each well on the assay plate, followed by a 2-hour incubation at ambient temperature. During this incubation cAMP released from lysed cells competes with the Europium-labeled cAMP tracer for binding to the Alexa Fluor 647-conjugated antibody. […] Cellular cAMP levels were then determined by interpolation of raw signal data using a cAMP standard curve. Compounds were determined to have agonist activity if they stimulated a 1.5-fold or greater increase in cAMP relative to basal levels.
For orientation: TR-FRET usually uses a lanthanide donor and a delayed reading to cut background.

Consider `CS(=O)(=O)c1cc(F)c(O[C@@H]2CCN(C3CCN(c4noc(C(F)(F)F)n4)CC3)C2=O)cc1F` (single isomer, unassigned) [Example 66], for which the “cAMP production in HEK-293 cells” value was 8.7 nmol and the Fold over baseline is given as 2.7.

Regarding `CC(C)c1noc(N2CCC(N3CC[C@H](Oc4cc(F)c(S(C)(=O)=O)cc4F)C3=O)CC2)n1` [Example 1, (S)-3-(2,5-difluoro-4-(methylsulfonyl)phenoxy)-1-(1-(3-isopropyl-1,2,4-oxadiazol-5-yl)piperidin-4-yl)pyrrolidin-2-one], the “cAMP production in HEK-293 cells” value worked out at 25.0 nmol and the Fold over baseline was found to be 4.6.

Consider `CC(C)c1noc(N2CCC(N3CC[C@H](Oc4ccc(S(C)(=O)=O)cc4F)C3=O)CC2)n1` [Example 2, (S)-3-(2-fluoro-4-(methylsulfonyl)phenoxy)-1-(1-(3-isopropyl-1,2,4-oxadiazol-5-yl)piperidin-4-yl)pyrrolidin-2-one], for which the “cAMP production in HEK-293 cells” value turned out to be 27.4 nmol and the Fold over baseline was 5.6.

For the compound `CC(C)(C)c1noc(N2CCC(N3CC[C@H](Oc4cc(F)c(S(C)(=O)=O)cc4F)C3=O)CC2)n1` [Example 3, (S)-1-(1-(3-tert-butyl-1,2,4-oxadiazol-5-yl)piperidin-4-yl)-3-(2,5-difluoro-4-(methylsulfonyl)phenoxy)pyrrolidin-2-one], the “cAMP production in HEK-293 cells” value turned out to be 21.7 nmol and the Fold over baseline is 3.3.

On to `CC(C)c1noc(N2CCC(N3CC[C@@H](Oc4cc(F)c(S(C)(=O)=O)cc4F)C3=O)CC2)n1` [Example 4, (R)-3-(2,5-difluoro-4-(methylsulfonyl)phenoxy)-1-(1-(3-isopropyl-1,2,4-oxadiazol-5-yl)piperidin-4-yl)pyrrolidin-2-one], for which the “cAMP production in HEK-293 cells” value stood at 18.7 nmol and the Fold over baseline is on record as 3.9.

Consider `CC(C)(C)c1noc(N2CCC(N3CC[C@H](Oc4ccc(S(C)(=O)=O)cc4F)C3=O)CC2)n1` [Example 5, (S)-1-(1-(3-tert-butyl-1,2,4-oxadiazol-5-yl)piperidin-4-yl)-3-(2-fluoro-4-(methylsulfonyl)phenoxy)pyrrolidin-2-one], for which the “cAMP production in HEK-293 cells” value amounted to 22.7 nmol and the Fold over baseline is 4.8.

As to `CCc1noc(N2CCC(N3CC[C@H](Oc4ccc(S(C)(=O)=O)cc4F)C3=O)CC2)n1` [Example 6, (S)-1-(1-(3-ethyl-1,2,4-oxadiazol-5-yl)piperidin-4-yl)-3-(2-fluoro-4-(methylsulfonyl)phenoxy)pyrrolidin-2-one], the “cAMP production in HEK-293 cells” value worked out at 22.5 nmol and the Fold over baseline amounted to 4.9.

Regarding `CC(C)c1noc(N2CCC(N3CCC[C@H](Nc4ccc(S(C)(=O)=O)cc4F)C3=O)CC2)n1` [Example 7, (S)-3-(2-fluoro-4-(methylsulfonyl)phenylamino)-1′-(3-isopropyl-1,2,4-oxadiazol-5-yl)-1,4′-bipiperidin-2-one], the “cAMP production in HEK-293 cells” value was determined as 27.8 nmol and the Fold over baseline is listed as 5.7.

Take `CC(C)c1noc(N2CCC(N3CC[C@H](Nc4ccc(S(C)(=O)=O)cc4F)C3=O)CC2)n1` [Example 8, (S)-3-(2-fluoro-4-(methylsulfonyl)phenylamino)-1-(1-(3-isopropyl-1,2,4-oxadiazol-5-yl)piperidin-4-yl)pyrrolidin-2-one]: the “cAMP production in HEK-293 cells” value came out at 25.0 nmol and the Fold over baseline is listed as 4.9.

For `CS(=O)(=O)c1cc(F)c(N[C@H]2CCCN(C3CCN(c4nc(C(F)(F)F)no4)CC3)C2=O)cc1F` [Example 9, (S)-3-(2,5-difluoro-4-(methylsulfonyl)phenylamino)-1′-(3-trifluoromethyl-1,2,4-oxadiazol-5-yl)-1,4′-bipiperidin-2-one], the “cAMP production in HEK-293 cells” value was determined as 11.4 nmol and the Fold over baseline is reported as 3.5.

Take `CS(=O)(=O)c1cc(F)c(N[C@H]2CCCN(C3CCN(c4nc(C(F)(F)F)no4)CC3)C2=O)c(F)c1` [Example 10, (S)-3-(2,6-difluoro-4-(methylsulfonyl)phenylamino)-1′-(3-trifluoromethyl-1,2,4-oxadiazol-5-yl)-1,4′-bipiperidin-2-one]: the “cAMP production in HEK-293 cells” value worked out at 8.3 nmol and the Fold over baseline was found to be 2.9.

`CS(=O)(=O)c1cc(F)c(O[C@H]2CCN(C3CCN(c4nc(C(F)(F)F)no4)CC3)C2=O)cc1F` [Example 11, (S)-1-(1-(3-trifluoromethyl-1,2,4-oxadiazol-5-yl)piperidin-4-yl)-3-(2,5-difluoro-4-(methylsulfonyl)phenoxy)pyrrolidin-2-one]: the “cAMP production in HEK-293 cells” value was 13.5 nmol and the Fold over baseline is reported as 4.0.

Take `CC(C)c1nc(N2CCC(N3CCC[C@H](Nc4c(F)cc(S(C)(=O)=O)cc4F)C3=O)CC2)no1` [Example 12, (S)-3-(2,6-difluoro-4-(methylsulfonyl)phenylamino)-1′-(5-isopropyl-1,2,4-oxadiazol-3-yl)-1,4′-bipiperidin-2-one]: the “cAMP production in HEK-293 cells” value was 16.1 nmol and the Fold over baseline turned out to be 3.4.

Consider `CS(=O)(=O)c1ccc(N[C@H]2CCN(C3CCN(c4noc(C(Cl)(Cl)Cl)n4)CC3)C2=O)c(F)c1` [Example 13, (S)-3-(2-fluoro-4-(methylsulfonyl)phenylamino)-1-(1-(5-(trichloromethyl)-1,2,4-oxadiazol-3-yl)piperidin-4-yl)pyrrolidin-2-one], for which the “cAMP production in HEK-293 cells” value was 17.3 nmol and the Fold over baseline came to 3.0.

On to `CC(C)c1nc(N2CCC(N3CCC[C@H](Nc4ccc(S(C)(=O)=O)cc4F)C3=O)CC2)no1` [Example 14, (S)-3-(2-fluoro-4-(methylsulfonyl)phenylamino)-1′-(5-isopropyl-1,2,4-oxadiazol-3-yl)-1,4′-bipiperidin-2-one], for which the “cAMP production in HEK-293 cells” value amounted to 18.9 nmol and the Fold over baseline was determined as 3.5.

`CC(C)c1nc(N2CCC(N3CC[C@H](Nc4ccc(S(C)(=O)=O)cc4F)C3=O)CC2)no1` [Example 15, (S)-3-(2-fluoro-4-(methylsulfonyl)phenylamino)-1-(1-(5-isopropyl-1,2,4-oxadiazol-3-yl)piperidin-4-yl)pyrrolidin-2-one]: the “cAMP production in HEK-293 cells” value stood at 20.8 nmol and the Fold over baseline was determined as 3.8.

With `CS(=O)(=O)c1ccc(N[C@H]2CCN(C3CCN(c4noc(C(F)(F)F)n4)CC3)C2=O)c(F)c1` [Example 16, (S)-3-(2-fluoro-4-(methylsulfonyl)phenylamino)-1-(1-(5-(trifluoromethyl)-1,2,4-oxadiazol-3-yl)piperidin-4-yl)pyrrolidin-2-one], the “cAMP production in HEK-293 cells” value turned out to be 17.0 nmol and the Fold over baseline was 4.3.

In the case of `CS(=O)(=O)c1cc(F)c(O[C@H]2CCN(C3CCN(c4noc(-c5ccccc5)n4)CC3)C2=O)cc1F` [Example 17, (S)-3-(2,5-difluoro-4-(methylsulfonyl)phenoxy)-1-(1-(5-phenyl-1,2,4-oxadiazol-3-yl)piperidin-4-yl)pyrrolidin-2-one], the “cAMP production in HEK-293 cells” value came out at 28.3 nmol and the Fold over baseline is 4.8.

As to `CC(C)c1nc(N2CCC(N3CC[C@H](Oc4ccc(S(C)(=O)=O)cc4F)C3=O)CC2)no1` [Example 18, (S)-3-(2-fluoro-4-(methylsulfonyl)phenoxy)-1-(1-(5-isopropyl-1,2,4-oxadiazol-3-yl)piperidin-4-yl)pyrrolidin-2-one], the “cAMP production in HEK-293 cells” value was found to be 19.4 nmol and the Fold over baseline is 3.7.

For `CC(C)c1nc(N2CCC(N3CC[C@H](Oc4cc(F)c(S(C)(=O)=O)cc4F)C3=O)CC2)no1` [Example 19, (S)-3-(2,5-difluoro-4-(methylsulfonyl)phenoxy)-1-(1-(5-isopropyl-1,2,4-oxadiazol-3-yl)piperidin-4-yl)pyrrolidin-2-one], the “cAMP production in HEK-293 cells” value was 24.9 nmol and the Fold over baseline stood at 4.1.

Consider `CC(C)c1nc(N2CCC(N3CC[C@H](Oc4c(F)cc(S(C)(=O)=O)cc4F)C3=O)CC2)no1` [Example 20, (S)-3-(2,6-difluoro-4-(methylsulfonyl)phenoxy)-1-(1-(5-isopropyl-1,2,4-oxadiazol-3-yl)piperidin-4-yl)pyrrolidin-2-one], for which the “cAMP production in HEK-293 cells” value stood at 19.4 nmol and the Fold over baseline was found to be 3.7.

Consider `CS(=O)(=O)c1ccc(N[C@H]2CCN(C3CCN(c4noc(C(F)F)n4)CC3)C2=O)c(F)c1` [Example 21, (S)-1-(1-(5-(difluoromethyl)-1,2,4-oxadiazol-3-yl)piperidin-4-yl)-3-(2-fluoro-4-(methylsulfonyl)phenylamino)pyrrolidin-2-one], for which the “cAMP production in HEK-293 cells” value was found to be 21.0 nmol and the Fold over baseline is given as 2.8.
